In BigSolDB 2.1:

O=c1cc(-c2ccccc2)oc2cc(O)cc(O)c12
solubility (mole fraction)
Details | in DMF | in acetone | in ethanol | in ethyl acetate | in isopropanol | in methanol | in n-butanol | in n-hexane | in n-propanol | in water
293.2 K | 0.01 | 0.00128 | 0.000455 | 0.000716 | 0.000512 | 0.000226 | 0.000586 | 1.4e-07 | 0.000482 | 4.61e-09
298.2 K | 0.0131 | 0.00143 | 0.000505 | 0.00082 | 0.000614 | 0.000238 | 0.000663 | 2.95e-07 | 0.000569 | 8.63e-09
303.2 K | 0.0152 | 0.00161 | 0.000637 | 0.000893 | 0.000707 | 0.000299 | 0.000833 | 3.8e-07 | 0.000724 | 1.26e-08
308.2 K | 0.0229 | 0.00176 | 0.000709 | 0.00101 | 0.000836 | 0.000324 | 0.000981 | 4.5e-07 | 0.000837 | 2.57e-08
313.2 K | 0.0264 | 0.00205 | 0.000822 | 0.00113 | 0.00104 | 0.000406 | 0.00115 | 6.78e-07 | 0.000971 | 3.96e-08
318.2 K | 0.0328 | 0.00226 | 0.000903 | 0.00134 | 0.00121 | 0.000453 | 0.00138 | 1.08e-06 | 0.00123 | 4.82e-08
323.2 K | 0.0408 | 0.00243 | 0.00113 | 0.00144 | 0.0014 | 0.000576 | 0.0016 | 1.25e-06 | 0.00147 | 8.41e-08
328.2 K | 0.0479 | 0.00281 | 0.00144 | 0.00163 | 0.00185 | 0.000711 | 0.00195 | 1.7e-06 | 0.0017 | 1.28e-07
333.2 K | 0.0568 | – | 0.00171 | 0.00176 | 0.00213 | 0.000813 | 0.00229 | 2.21e-06 | 0.00195 | 1.88e-07
